# Laboratory results reported in paper PMC10807440, “Engineering Novosphingobium aromaticivorans to produce cis,cis-muconic acid from biomass aromatics” (Applied and Environmental Microbiology, 2023).
# Experiments:
# [1] = target: T1, NadCD (Novosphingobium aromaticivorans, UniProt A4XDW1); experiment: PCA to catechol conversion by LCMS; format: biochemical; settings: 1 mM PCA, 0.1 µM enzyme, crude prFMN-containing E. coli lysate needed, 50 mM HEPES, 150 mM NaCl pH 7.5, room temperature (18 h endpoint assay)
# T1 construct: gene Saro_3877; Saro_3877-78 cloned together in pVP302K (8x His tag), expressed in E. coli B834 pRARE2, Ni-NTA purified; with protocatechuate decarboxylase subunit D (4-hydroxybenzoate decarboxylase subunit D-like)
# T1 sequence (A4XDW1 1-486): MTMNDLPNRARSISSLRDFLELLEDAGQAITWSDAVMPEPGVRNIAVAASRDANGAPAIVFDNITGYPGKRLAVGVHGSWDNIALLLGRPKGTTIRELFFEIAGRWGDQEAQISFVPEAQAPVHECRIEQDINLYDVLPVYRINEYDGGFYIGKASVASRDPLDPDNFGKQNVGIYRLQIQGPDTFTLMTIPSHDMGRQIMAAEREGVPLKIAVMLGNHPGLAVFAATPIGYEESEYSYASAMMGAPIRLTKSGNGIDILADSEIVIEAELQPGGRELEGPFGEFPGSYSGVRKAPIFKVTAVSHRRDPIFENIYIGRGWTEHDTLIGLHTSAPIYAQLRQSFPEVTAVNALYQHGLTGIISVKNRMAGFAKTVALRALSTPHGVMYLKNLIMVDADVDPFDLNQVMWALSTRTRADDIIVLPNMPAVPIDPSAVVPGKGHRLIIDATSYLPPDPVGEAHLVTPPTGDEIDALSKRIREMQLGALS
# T1 sequence (A4XDW2 1-74 partner): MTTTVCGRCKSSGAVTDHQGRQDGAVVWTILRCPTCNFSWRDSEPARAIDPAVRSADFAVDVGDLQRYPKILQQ
# [2] = target: T2, NaCatA (Novosphingobium aromaticivorans, UniProt A4XFH8); experiment: ccMA formation by absorbance at […] nm; format: biochemical; settings: 100 µM catechol, 0.5 µM enzyme, 50 mM HEPES, 150 mM NaCl pH 7.5, 28°C; O2 co-substrate
# T2 construct: gene Saro_3830; pVP302K (8x His tag), expressed in E. coli B834 pRARE2 with Fe(II)SO4, Ni-NTA purified
# T2 sequence (A4XFH8 1-298): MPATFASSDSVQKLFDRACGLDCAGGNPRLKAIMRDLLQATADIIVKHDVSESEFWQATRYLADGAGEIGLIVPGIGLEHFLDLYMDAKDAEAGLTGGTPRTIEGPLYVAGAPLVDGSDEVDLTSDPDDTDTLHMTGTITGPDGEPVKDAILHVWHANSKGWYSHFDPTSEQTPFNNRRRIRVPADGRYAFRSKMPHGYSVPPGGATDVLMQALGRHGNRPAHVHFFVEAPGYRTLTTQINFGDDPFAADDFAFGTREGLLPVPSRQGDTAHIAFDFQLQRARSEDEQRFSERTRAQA
SMILES,PCA to catechol conversion by LCMS [1],ccMA formation by absorbance at 260 nm [2]
O=C(O)c1ccc(O)c(O)c1 [PCA],NadCD was mixed with PCA and with the crude E. coli lysate that contained prFMN,
Oc1ccccc1O [catechol],,NaCatA catalyzes the intradiol cleavage of catechol to produce ccMA in vitro
